Results as given in US20210017569A1, “Ligase Screening Assay” (UNIVERSITY OF DUNDEE, priority 2018, published 2021).
Each block holds one compound with its values, some of them ahead of it.

Legend:
Assay type in all cases: biochemical
GST-MYCBP2 = molecular target: T1, GST-MYCBP2 (Homo sapiens, UniProt O75592); assay: Multiple turnover amino acid and peptide panel discharge assays; settings: for function as proxy substrate (hydroxy probe) of MYCBP2: tested herein as proxy substrates; for discharge activity / Ub modification in amino acid panel: amino acid nucleophile, UBE2D3~Ub, MYCBP2cat
T1 construct: GST-tagged MYCBP2cat (Ser4378-Phe4640), wt and mutants, were expressed at 16° C. overnight; made in house; host or cells: E. coli BL21-DE3
T1 sequence (O75592 4416-4678 limits assumed): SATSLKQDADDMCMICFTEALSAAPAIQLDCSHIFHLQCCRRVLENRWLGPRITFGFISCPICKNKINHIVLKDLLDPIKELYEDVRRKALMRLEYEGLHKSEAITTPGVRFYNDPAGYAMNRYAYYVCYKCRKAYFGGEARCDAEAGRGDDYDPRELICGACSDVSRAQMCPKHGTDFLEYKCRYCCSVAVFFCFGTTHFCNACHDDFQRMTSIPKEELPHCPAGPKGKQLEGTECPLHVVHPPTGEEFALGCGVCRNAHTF
Description: Stock solutions (0.5 M) of amino acids were dissolved in MQ water and pH was adjusted to pH ˜8. Peptides of the sequence Ac-EGXGN-NH2 (X=K, S or T) were obtained from Bio-Synthesis Inc. Stock peptide solutions (200 mM) were dissolved in MQ water and pH was adjusted to pH ˜8. An E2 (UBE2D3) charging reaction was carried out in buffer (40 mM Na2HPO4—HCl pH 8.0, 150 mM NaCl, 0.5 mM TCEP) containing UBE1 (250-500 nM), UBE2D3 (20 μM), Ub (50 μM), or Cy3B-Ub (25 μM), MgCl2 (5 mM) and ATP 10 (mM). The reaction was incubated at 37° C. for 15 minutes and then equilibrated to 23° C. for 3 minutes. An equivalent volume of nucleophile sample containing small molecule/peptide nucleophile (100 mM) and GST-MYCBP2 (10 μM) was then added and incubated at 23° C. Samples were taken at the specified time points and analyzed as described for Tris/glycerol-mediated E2 discharge assay.
Cy3B-Ub was visualized using a Chemidoc Gel Imaging System (Biorad). LC-MS was carried out as described for Tris/glycerol discharge but amino acid substrate samples were quenched by the addition of 2:1 parts quenching solution (75% acetonitrile, 2% TFA) and peptide substrate samples were quenched by addition of 1:1 parts quenching solution.

MYCBP2 = molecular target: T2, MYCBP2 (Homo sapiens, UniProt O75592); assay: Tris/glycerol-mediated E2 discharge assay with LC-MS analysis; settings: Tris 50 mM and glycerol ~65 mM in assay buffer
T2 construct: GST-tagged MYCBP2cat (Ser4378-Phe4640), wt and mutants, were expressed at 16° C. overnight; GST (N); made in house; host or cells: E. coli BL21-DE3
T2 sequence (O75592 4416-4678 limits assumed): T1 sequence (O75592 4416-4678 limits assumed)
Description: Assays were carried out in buffer (50 mM Tris-HCl pH 7.5, 150 mM NaCl, 0.5 mM TCEP, 5 mM MgCl2) containing the indicated MYCBP2 mutant (15 μM), UBE1 (1.5 μM), UBE2D3 (15 μM), Ub (37 μM) and ATP (10 mM). The reactions were incubated at 37° C. for 30 minutes. Reactions were terminated by the addition of 4×LDS loading buffer (with and without ˜680 mM 2-mercaptoethanol). A C4572S sample was further incubated with 0.14 N NaOH at 37° C. for 20 minutes and samples were resolved by SDS-PAGE (4-12% NuPage gel) and visualized by Coomassie staining.
Reactions were prepared as described for discharge assay. After 30 minutes, the reaction was analyzed using an Agilent 1200/6130 LC-MS system (Agilent Technologies) using a 10-75% gradient over 20 minutes (buffer A=H2O+0.05% TFA, buffer B=acetonitrile+0.04% TFA).

MYCBP2cat = molecular target: T3, MYCBP2cat (Homo sapiens, UniProt O75592); assay: NMNAT2 ubiquitination assay; settings: base lability and thiol resistance test
T3 construct: GST-tagged MYCBP2cat (Ser4378-Phe4640), wt and mutants, were expressed at 16° C. overnight; GST (N, cleaved yes); made in house; host or cells: E. coli BL21-DE3
T3 sequence (O75592 4416-4678 limits assumed): T1 sequence (O75592 4416-4678 limits assumed)
Description: NMNAT2 (5 μM) was mixed with E1 (500 nM), UBE2D3 (10 μM), MYCBP2cat (10 μM), Ub (50 μM), ATP (10 mM) and made up with 10×pH 7.5 buffer (40 mM Na2H2PO4 pH 7.5, 150 mM NaCl, 5 mM MgCl2, 0.5 mM TCEP). The reactions were incubated at 37° C. for 1 hour and terminated by the addition of 4×LDS loading buffer (either non-reducing or reducing). For base lability test, reactions were supplemented with 0.14 N NaOH and then further incubated at 37° C. for 20 minutes.

GST-MYCBP2cat = molecular target: T4, GST-MYCBP2cat (Homo sapiens, UniProt O75592); assay: Multiple turnover E2 discharge panel (threonine discharge); settings: 17 E2s tested
T4 construct: GST-tagged MYCBP2cat (Ser4378-Phe4640), wt and mutants, were expressed at 16° C. overnight; made in house; host or cells: E. coli BL21-DE3
T4 sequence (O75592 4416-4678 limits assumed): T1 sequence (O75592 4416-4678 limits assumed)
Description: E2s were screened for threonine discharge activity with GST-MYCBP2cat as described for the amino acid panel. E2s were also incubated in the presence of threonine but in the absence of GST-MYCBP2cat. These samples provided a reference to distinguish between intrinsic E2˜Ub instability and E3-dependent discharge.

function as proxy substrate (hydroxy probe) of MYCBP2 (GST-MYCBP2): functional
Compound: O=S(=O)(O)CCN1CCN(CCO)CC1 [HEPES, 4-(2-hydroxyethyl)-1-piperazineethanesulfonic acid]

function as proxy substrate (hydroxy probe) of MYCBP2 (GST-MYCBP2): functional
conversion of Ub into condensation product with nucleophile (MYCBP2): quantitatively converted
Compound: OCC(O)CO [glycerol]

discharge activity / Ub modification in amino acid panel (GST-MYCBP2): low level
Compound: NCCCC[C@H](N)C(=O)O [lysine]

E2 partner activity with MYCBP2cat (GST-MYCBP2cat): robust activity
Compound: UBE2D1: E2 conjugating enzyme

E2 partner activity with MYCBP2cat (GST-MYCBP2cat): robust activity
Compound: UBE2D3: E2 conjugating enzyme, N-terminally 6His-tagged recombinant protein

Continued, compound first:

Compound: N[C@@H](CO)C(=O)O [serine]
function as proxy substrate (hydroxy probe) of MYCBP2 (GST-MYCBP2): functional

Compound: C[C@@H](O)[C@H](N)C(=O)O [threonine]
discharge activity / Ub modification in amino acid panel (GST-MYCBP2): strikingly enhanced
selectivity for threonine over serine (GST-MYCBP2; amino acid substrates, MS-based quantification of Ub esterification): ~10 fold
Threonine selectivity in a peptide context (GST-MYCBP2; peptides Ac-EGXGN-NH2 (X=K, S or T)): 3 fold
function as proxy substrate (hydroxy probe) of MYCBP2 (GST-MYCBP2): functional

Compound: NMNAT2: Nicotinamide Mononucleotide Adenyltransferase, putative MYCBP2 substrate
ubiquitination by MYCBP2cat in vitro (MYCBP2cat): hydroxide labile but thiol resistant ubiquitination

Compound: tris(hydroxymethyl)aminomethane
function as proxy substrate (hydroxy probe) of MYCBP2 (GST-MYCBP2): functional
conversion of Ub into condensation product with nucleophile (MYCBP2): quantitatively converted
